Read-outs that look alike come from different tables or passages of the source.
How the values were obtained:
[1] = Kinetic aqueous solubility in PBS pH 7.4; assay type: physicochemical; conditions: PBS (pH 7.4), 37 °C, pH 7.4, aqueous buffer, kinetic from dmso stock, after 2 h at 37 °C in PBS, 500 μM target concentration, mean ± SEM, n = 3
Method: Preparative purifications over RP-HPLC were performed on a Kinetex XB C18 (5 μm, 250 × 21.2 mm) column on an Armen Spot Prep II integrated HPLC purification system (Gilson, Middleton, WI, USA) with dual-wavelength detection, with an adequately chosen combination of acetonitrile–water, and a flow rate of 15 mL/min. The purity of the compounds obtained was determined by RP-HPLC analyses on a system of two Jasco PU 2080 pumps, a Jasco AS-2055 Plus intelligent sampler connected to a JASCO LC-Net II/ADC equipped with a Jasco MD-2010 Plus PDA detector (Jasco International Co. Ltd., Hachioji, Tokyo, Japan) utilizing a Kinetex C-18 (5 μm, 250 × 4.6 mm) column (Phenomenex Inc., Torrance, CA, USA) and applying a gradient of 30%–100% aqueous AcN in 30 min followed by 100% ACN for 10 min with a flow rate of 1 mL/min. Analysis of samples from the PAMPA and kinetic solubility assays was performed the same way, by using 3-point calibrations and integrating each compound at its UV absorption maximum.
In a 96-well polypropylene plate (Greiner Bio-One, Kremsmünster, Austria), 15 μL stock solutions were added to 285 μL PBS (pH 7.4) to make starting donor solution with 500 μM as target concentration. For each sample, 3 replicates were measured. The samples were covered and shaken at 37 °C, 300 rpm for 2 h (Heidolph Titramax 1000, Heidolph Instruments GmbH & Co. KG, Schwabach, Germany). After that, each sample was transferred into a filter plate (MSSBLPC, Multiscreen Filter plate, Merck kGaA) and filtered (Vaccum Manifold, Merck kGaA, Darmstadt, Germany). The filtrates were transferred into HPLC vials, and acetonitrile (AcN) was added to aliquot to avoid precipitation. The final solvent ratio was AcN:PBS (70:30). Filtrate concentration was determined by HPLC-UV (see Section 2.1) using 3-points calibration.

[2] = Peroxynitrite scavenging (pyrogallol red); conditions: % inhibition at 500 µM; mean ± SEM, n = 3
Method: Peroxynitrite was synthesised by a continuous flow system using syringe pumps as published previously. Briefly, an acidic solution of hydrogen peroxide (0.6 M H2O2, 0.7 M HCl) was pumped to a junction alongside of sodium nitrite solution (0.6 M) at a flow rate of 1.5 mL/min. After passing 10 cm of tubing, it was mixed with a sodium hydroxide solution (1.5 M), also pumped at 1.5 mL/min. The resulting peroxynitrite solution was a bright yellow colour. The tubing around the reaction was submerged in ice. The concentration of the solution was determined by spectrophotometry and was adjusted to 30 mM with 0.1 M NaOH solution.
In a 96-well microplate 245 µL of pyrogallol red (100 µM final concentration, dissolved in 0.1 M glycine buffer) was mixed with 50 µL of sample (0.5 mM final concentration, dissolved in DMSO) and 5 µL ONOO^– solution (500 µM final concentration, freshly prepared). After mixing and keeping it at room temperature for 30 min the absorbance was measured at 550 nm using a FluoStar Optima plate reader (software version 2.20R2, BMG Labtech, Ortenberg, Germany).

xanthine oxidase (XO) = target: T1, xanthine oxidase (XO) (Bos taurus, UniProt P80457); experiment: Xanthine oxidase inhibition, spectrophotometric; assay type: biochemical; conditions: for XO Inhibition (%): % inhibition at 100 µM, mean ± SEM, n = 3; for inhibition at 100 µM: read-out: XO Inhibition (%)
T1 construct: purchased Sigma (Merck KGaA)
Method: The xanthine oxidase (XO) inhibitory activity of the compounds was determined using continuous spectrophotometric rate based on a modified protocol of Sigma. […]. In a 96-well plate, the final reaction mixture consisted of 10 µL of sample (dissolved in DMSO, […] stock solution, 100 µM final), 100 µL of xanthine solution (0.15 mM, pH = 7.4), 140 µL of buffer (potassium phosphate, pH = 7.5) and 50 µL of XO (0.2 units/mL). When measuring the enzyme activity, control buffer was used in place of the sample. Allopurinol was applied as a control. The reaction was initiated by the automatic addition of 50 µL of XO solution. The absorbance of XO-induced uric acid production from xanthine was measured at 290 nm for 3 min in a 96-well plate on a BMG Labtech FluoStar Optima plate reader. The inhibitory percentage values were calculated by using Graph Pad Prism 8.0 (La Jolla, CA, USA).

[3] = Oxygen radical absorbance capacity (ORAC); conditions: 1 µM sample; mean ± SEM, n = 3
Method: AAPH ((2,20-Azobis(2-methyl-propionamidine) dihydrochloride) free radical and Trolox standard were purchased from Sigma-Aldrich Hungary. Fluorescein was purchased from Fluka Analytical, Tokyo, Japan. ORAC assay was carried out In a 96-well microplate based on the method from previous study. Briefly, 20 µL of the samples (1 µM final concentration, dissolved in phosphate buffer, pH = 7.4, containing 1% MeOH) were mixed with 60 µL of AAPH (12 mM final concentration, dissolved in phosphate buffer, pH = 7.4) and 120 µL of fluorescein solution (70 nM final concentration, dissolved in phosphate buffer), then the fluorescence was measured (excitation at λ = 485 nm, and emission at λ = 520 nm) through 3 h with 1.5-min cycle intervals with a BMG Labtech FluoStar Optima plate-reader. All experiments were carried out in triplicate, and Trolox was used as standard. The antioxidant capacity is expressed as Trolox Equivalent (TE), as calculated using GraphPad Prism 8.0 (La Jolla, CA, USA).

[4] = DPPH free radical scavenging assay; conditions: for IC50: 30 min, room temperature, MeOH, mean ± SEM, n = 2, read-out: DDPH IC50
Method: (§1) All bioactivity data processing, including the calculation of inhibition percentage, mean and corresponding standard error of the mean (SEM), and IC50 values, was performed by GraphPad Prism 8.0 (La Jolla, CA, USA). IC50 values were calculated from the sigmoidal dose–response curves obtained by the log(inhibitor) vs. response and variable slope (DPPH assay) or the log(inhibitor) vs. normalised response and variable slope nonlinear regression model. On the results obtained, no statistical evaluation was performed; instead, differences greater than two-fold were considered relevant. Plotting of the antiplatelet and COX-1 inhibitory IC50 values and the linear regression of the data was performed by Microsoft Excel.
DPPH (1,10-diphenyl-2-picrylhydrazyl) was purchased from Thermo Fisher Scientific. DPPH free radical scavenging assay was performed with some modifications based on the method by previous study. Briefly, in a 96-well microplate, microdilutions of samples (100 µL, starting from 200 µM in HPLC grade MeOH) were made and 100 µL of DPPH reagent (100 µM in MeOH) was added. After 30 min at room temperature in the dark, the absorbance was measured at 550 nm using a FluoStar Optima plate reader (software version 2.20R2, BMG Labtech Ortenberg, Germany). For the blank control, MeOH was used. The scavenging activity was calculated as Inhibition (%) = (A0 − As)/A0 × 100, and IC50 values were calculated by GraphPad Prism 8.0 (La Jolla, CA, USA).

washed human platelets = experiment: Arachidonic acid-induced platelet aggregation (turbidimetric aggregometer); assay type: cell-based; conditions: washed human platelets treated 3 min, then arachidonic acid (100 μM), mean ± SEM, n = 3, read-out: Antiplatelet IC50
Method: as §1
Human platelet suspension (3 × 10^8/mL in Tyrode’s buffer) was prepared as previously described. The protocol for this study was approved by the institutional review board of Kaohsiung Medical University Hospital (Kaohsiung City, Taiwan). Platelets pre-treated with DMSO (vehicle control) or test compounds were stimulated with arachidonic acid (AA), and platelet aggregation was measured using turbidimetric aggregometer (Chrono-Log Co., Havertown, PA, USA) at 37 °C under stirring conditions (1200 rpm).

COX-1 enzyme = target: T2, COX-1 enzyme (Ovis aries, UniProt P05979); experiment: COX-1 inhibitor screening kit, fluorometric (BioVision K548-100); assay type: biochemical; conditions: for LLE(COX-1): LLE = pIC50 − logPpredicted; for IC50: mean ± SEM, n = 2
T2 construct: purchased BioVision (via VWR International Kft.) K548-100
T2 sequence (P05979 25-600): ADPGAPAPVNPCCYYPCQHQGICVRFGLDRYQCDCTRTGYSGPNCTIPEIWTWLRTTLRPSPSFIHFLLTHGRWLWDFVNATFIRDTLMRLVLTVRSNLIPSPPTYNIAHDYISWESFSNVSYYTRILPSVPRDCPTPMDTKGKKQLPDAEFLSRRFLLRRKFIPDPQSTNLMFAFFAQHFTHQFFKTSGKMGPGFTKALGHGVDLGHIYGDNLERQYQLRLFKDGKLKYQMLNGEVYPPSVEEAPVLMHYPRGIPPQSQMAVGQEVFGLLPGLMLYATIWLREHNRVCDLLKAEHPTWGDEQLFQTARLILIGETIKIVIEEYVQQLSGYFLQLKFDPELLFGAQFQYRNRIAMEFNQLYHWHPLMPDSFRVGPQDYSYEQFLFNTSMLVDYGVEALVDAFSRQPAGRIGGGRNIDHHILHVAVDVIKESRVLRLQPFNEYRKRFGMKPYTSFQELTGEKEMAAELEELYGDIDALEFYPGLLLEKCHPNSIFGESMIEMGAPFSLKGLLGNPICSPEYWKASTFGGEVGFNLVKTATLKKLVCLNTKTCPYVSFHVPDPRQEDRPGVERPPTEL
Method: COX-1 inhibitory activity was tested based on the fluorometric method as described in BioVision’s COX-1 inhibitor screening kit leafkit (K548-100, BioVision, CA, USA). Sample solutions were prepared by dissolving in DMSO and subsequently buffer, to get desired concentrations. In a 96-well white plate (655101, F-bottom, Grenier bio-one, Germany), 80 µL reaction mix (containing 76 µL assay buffer, 1 µL COX Probe, 2 µL COX cofactor, and 1 µL COX-1 enzyme) was added to 10 µL sample solution, DMSO and assay buffer to get test wells assigned for sample screen (S), negative control (N) and blank, respectively. An aliquot of 10 µL of arachidonic/NaOH solution was added to each well using a multi-channel pipette to initiate the reaction at the same time, and the fluorescence of each well was measured kinetically at Ex/Em 550/610 nm, at 25OC for 10 min using a FluoStar Optima plate reader (BMG Labtech, Ortenberg, Germany). The COX inhibitory activity of SC560, a standard inhibitor, was also determined.
The change in fluorescence between two points, T1 and T2 were determined, and relative inhibition was calculated according to the following equation:% Inhibition = (ΔN − ΔS)/ΔN × 100 (1) where N is the absorbance of the negative control, and S is that of the sample.
Dose-effect studies on the compounds were used to determine the concentration that inhibits 50% of the enzyme activity. The sigmoidal dose–response model was obtained by using the software GraphPad Prism 8.0 (La Jolla, CA, USA), and these were used to determine the IC50 values of the compounds.

T1 sequence (P80457 2-1332 limits assumed): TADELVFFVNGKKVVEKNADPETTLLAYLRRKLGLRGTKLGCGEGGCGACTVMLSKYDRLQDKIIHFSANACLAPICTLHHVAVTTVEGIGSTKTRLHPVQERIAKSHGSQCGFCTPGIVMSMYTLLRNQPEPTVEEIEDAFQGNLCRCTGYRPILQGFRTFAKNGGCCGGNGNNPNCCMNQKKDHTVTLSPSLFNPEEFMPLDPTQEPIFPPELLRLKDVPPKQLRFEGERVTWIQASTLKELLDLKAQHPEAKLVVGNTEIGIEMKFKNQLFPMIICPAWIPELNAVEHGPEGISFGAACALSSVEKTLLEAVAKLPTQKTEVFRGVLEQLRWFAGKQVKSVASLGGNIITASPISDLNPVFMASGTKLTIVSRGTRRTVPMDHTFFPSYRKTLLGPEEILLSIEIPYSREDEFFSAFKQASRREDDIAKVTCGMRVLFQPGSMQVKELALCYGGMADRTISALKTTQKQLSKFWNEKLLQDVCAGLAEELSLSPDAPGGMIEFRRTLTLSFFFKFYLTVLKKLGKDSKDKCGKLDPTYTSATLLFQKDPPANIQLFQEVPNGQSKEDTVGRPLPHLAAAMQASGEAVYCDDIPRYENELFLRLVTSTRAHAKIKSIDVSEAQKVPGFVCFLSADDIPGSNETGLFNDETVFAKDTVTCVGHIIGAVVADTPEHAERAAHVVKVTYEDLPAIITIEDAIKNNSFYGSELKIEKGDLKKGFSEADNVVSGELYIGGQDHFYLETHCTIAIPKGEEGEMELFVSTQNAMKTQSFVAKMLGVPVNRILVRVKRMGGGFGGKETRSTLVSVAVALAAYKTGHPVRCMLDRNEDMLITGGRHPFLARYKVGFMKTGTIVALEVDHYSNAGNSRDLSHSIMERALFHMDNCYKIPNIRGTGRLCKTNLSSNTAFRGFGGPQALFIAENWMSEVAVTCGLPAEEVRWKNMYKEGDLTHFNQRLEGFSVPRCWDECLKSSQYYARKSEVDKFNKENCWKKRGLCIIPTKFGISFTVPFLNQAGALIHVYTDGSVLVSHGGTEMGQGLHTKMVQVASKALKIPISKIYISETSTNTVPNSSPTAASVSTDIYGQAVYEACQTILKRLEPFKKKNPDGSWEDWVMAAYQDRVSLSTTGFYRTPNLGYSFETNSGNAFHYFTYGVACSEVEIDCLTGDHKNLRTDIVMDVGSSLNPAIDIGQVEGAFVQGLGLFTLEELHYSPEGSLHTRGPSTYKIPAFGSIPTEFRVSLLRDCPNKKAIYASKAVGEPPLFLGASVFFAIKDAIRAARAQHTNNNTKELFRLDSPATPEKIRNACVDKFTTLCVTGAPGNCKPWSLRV

## CCCCC/C(O)=C/C(=O)/C=C/c1ccc(O)cc1 [Compound 12A]
[1]
  solubility kinetic at 2 h: 15.6 ± 0.1 µM

## CCCCCC(=O)CC(=O)CCc1ccc(O)c(OC)c1 [Compound 13, 6-gingerdione]
[2]
  ONOO^– Scavenging (%): <5.0%
Xanthine oxidase (XO)
  XO Inhibition (%): <5.0%
[3]
  ORAC TE: 2.60 ± 0.06 Trolox equivalents (TE)
[4]
  IC50: 10.9 ± 0.69 µM
Washed human platelets
  IC50: 3.6 ± 0.9 µM
COX-1 enzyme
  LLE(COX-1): 1.53
  IC50: 11.8 ± 5.4 µM

## CCCCC/C(O)=C/C(=O)/C=C/c1ccc(O)c(OC)c1 [Compound 11A]
[1]
  solubility kinetic at 2 h: 54 ± 1.3 µM

## CCCCCC(=O)CC(=O)/C=C/c1ccc(O)cc1 [Compound 12C]
[1]
  solubility kinetic at 2 h: 15.6 ± 0.1 µM

## CCCCCC(=O)CC(=O)CCc1ccc(O)c(OC)c1 [Compound 13C]
[1]
  solubility kinetic at 2 h: 315 ± 23.7 µM

## Oc1ncnc2[nH]ncc12 [allopurinol, reference compound]
Xanthine oxidase (XO)
  inhibition at 100 µM: 98.8 ± 0.11%

## CCCCCC(=O)/C=C(\O)CCc1ccc(O)c(OC)c1 [Compound 13B]
[1]
  solubility kinetic at 2 h: 315 ± 23.7 µM

## CCCCCC(=O)CC(=O)/C=C/c1ccc(O)c(OC)c1 [Compound 11C]
[1]
  solubility kinetic at 2 h: 54 ± 1.3 µM

## CCCCC/C(O)=C/C(=O)CCc1ccc(O)c(OC)c1 [Compound 13A]
[1]
  solubility kinetic at 2 h: 315 ± 23.7 µM

## CCCCCC(=O)CC(=O)/C=C/c1ccc(O)cc1 [Compound 12, (E)-1-(4-hydroxyphenyl)dec-1-ene-3,5-dione]
[2]
  ONOO^– Scavenging (%): <5.0%
Xanthine oxidase (XO)
  inhibition at 100 µM: < 5%
[3]
  ORAC TE: 2.89 ± 0.49 Trolox equivalents (TE)
[4]
  DPPH scavenging activity (in words): inactive
  IC50: > 200 µM
Washed human platelets; Platelet, 0.05 h
  IC50: 71.7 ± 28.3 µM
COX-1 enzyme
  IC50: > 200 µM

## CCCCCC(=O)/C=C(O)/C=C/c1ccc(O)cc1 [Compound 12B]
[1]
  solubility kinetic at 2 h: 15.6 ± 0.1 µM

## CCCCCC(=O)/C=C(O)/C=C/c1ccc(O)c(OC)c1 [Compound 11B]
[1]
  solubility kinetic at 2 h: 54 ± 1.3 µM

## CCCCCC(=O)CC(=O)/C=C/c1ccc(O)c(OC)c1 [Compound 11, 6-dehydrogingerdione]
[2]
  ONOO^– Scavenging (%): <5.0%
Xanthine oxidase (XO)
  XO Inhibition (%): <5.0%
[3]
  ORAC TE: 1.98 ± 0.12 Trolox equivalents (TE)
[4]
  IC50: 9.04 ± 0.19 µM
Washed human platelets
  IC50: 4.1 ± 1 µM
COX-1 enzyme
  LLE(COX-1): 1.14
  IC50: 23.1 ± 9.3 µM
